Laboratory results published in ChEMBL document CHEMBL1201862, “PubChem BioAssay data set” (2004).
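Step 1: Grow cells in 96-well plates. Step 2: Expose to compound for 48 hours at 5 concentrations. Step 3: Interpolate endpoints linearly; if unreached, use highest concentration. GI50: concentration for 50% inhibition of growth.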 The source made the active and inactive calls. Rule as the data show it: active = GI50 up to about 1.1 µM and inactive = higher.

What was measured:
Test in all cases: NCI tumour cell line growth inhibition, 48 h
HOP-18 = test system: HOP-18
RXF 631 = test system: RXF 631
DMS-273 = test system: DMS-273
DLD-1 = test system: DLD-1
DMS-114 = test system: DMS-114
LXFL 529 = test system: LXFL 529
SNB-78 = test system: SNB-78
BT-549 = test system: BT-549
XF498 = test system: XF498

CCCC/C=C1/CCC(CN(C)C)C1=O (configuration not stated)
GI50 (HOP-18): 2.22 µM (inactive)
GI50 (RXF 631): 1.65 µM (inactive)
GI50 (DMS-273): 2.71 µM (inactive)
GI50 (DLD-1): 0.863 µM (active)
GI50 (DMS-114): 1.29 µM (inactive)
GI50 (LXFL 529): 0.625 µM (active)
GI50 (SNB-78): 2.3 µM (inactive)

CN(C)Cc1ccc(O)c(CN(C)C)n1
GI50 (BT-549): > 100 µM (inactive)

NC(=O)N/N=C/c1ccccc1O
GI50 (BT-549): > 100 µM (inactive)

C=CC(C)(C)c1c(OC)oc2ccc(OC)c(C)c2c1=O
GI50 (BT-549): 90.2 µM (inactive)

OCC1(CNc2cc(Cl)ncn2)CCC1
GI50 (BT-549): > 100 µM (inactive)

O=C(Cc1nc2ccccc2s1)C(=O)Nc1cccc(Cl)c1
GI50 (RXF 631): > 100 µM (inactive)
GI50 (XF498): > 100 µM (inactive)
GI50 (DMS-273): > 100 µM (inactive)
GI50 (DLD-1): > 100 µM (inactive)
GI50 (DMS-114): > 100 µM (inactive)
GI50 (LXFL 529): > 100 µM (inactive)
GI50 (SNB-78): > 100 µM (inactive)

CC(=O)Oc1ccc2c(c1)c1c(OC(C)=O)c3ccccc3c(OC(C)=O)c1n2Cc1cccc(C)c1
GI50 (BT-549): 35.1 µM (inactive)

COC(=O)c1c(O)ccc2c1c1cc3ccccc3c(O)c1n2Cc1ccccc1Cl
GI50 (BT-549): 32.8 µM (inactive)

COc1cc(CCCC(O)COc2cccc3c2C2(O)CCCCCC32)cc(OC)c1 (configuration not stated)
GI50 (HOP-18): 16 µM (inactive)
GI50 (XF498): 19.9 µM (inactive)
GI50 (DMS-273): 20.5 µM (inactive)
GI50 (DLD-1): 20.1 µM (inactive)
GI50 (DMS-114): 11.4 µM (inactive)
GI50 (LXFL 529): 16.5 µM (inactive)
GI50 (SNB-78): 20.7 µM (inactive)

COc1cccc(NC(=O)CC(=O)N2NC(C)C(/N=N/c3cccc(C(=O)O)c3)C2=O)c1 (configuration not stated)
GI50 (HOP-18): 17.9 µM (inactive)
GI50 (RXF 631): > 100 µM (inactive)
GI50 (DMS-273): > 100 µM (inactive)
GI50 (DLD-1): > 100 µM (inactive)
GI50 (DMS-114): > 100 µM (inactive)
GI50 (LXFL 529): > 100 µM (inactive)
GI50 (SNB-78): > 100 µM (inactive)

O=C(O)c1cnccc1-c1cc(=O)[nH]n1-c1ccccc1
GI50 (BT-549): > 80.5 µM (inactive)

O=C(OCC1OC2OC(c3ccccc3)(n3ccc4c([N+](=O)[O-])ccnc43)OC2C1OC(=O)c1ccccc1)c1ccccc1 (configuration not stated)
GI50 (BT-549): > 100 µM (inactive)

CC(=O)NC1CONC1=O (configuration not stated)
GI50 (BT-549): > 100 µM (inactive)

Cc1nc2sccn2c1C(=O)NC(=O)Nc1ccc(Cl)cc1
GI50 (XF498): 19.2 µM (inactive)
GI50 (DMS-273): 74.1 µM (inactive)
GI50 (DLD-1): > 100 µM (inactive)
GI50 (DMS-114): 50.5 µM (inactive)
GI50 (LXFL 529): > 100 µM (inactive)
GI50 (SNB-78): 42.9 µM (inactive)

CN(CN1C(=O)C2Cc3ccccc3CN2C1=O)c1ccccn1 (configuration not stated)
GI50 (XF498): > 100 µM (inactive)
GI50 (DMS-273): > 100 µM (inactive)
GI50 (DLD-1): > 100 µM (inactive)
GI50 (DMS-114): > 100 µM (inactive)
GI50 (LXFL 529): > 100 µM (inactive)

CC1(C)CC2C(=O)c3ccccc3NC2c2ccccc21 (configuration not stated)
GI50 (BT-549): 10.8 µM (inactive)

CC(=O)OCC1OC(OC2C(COC(C)=O)OC(Sc3ccccc3C)C(OC(C)=O)C2OC(C)=O)C(OC(C)=O)C(OC(C)=O)C1OC(C)=O (configuration not stated)
GI50 (HOP-18): > 100 µM (inactive)
GI50 (DMS-273): > 100 µM (inactive)
GI50 (DLD-1): > 100 µM (inactive)
GI50 (DMS-114): > 100 µM (inactive)
GI50 (LXFL 529): > 100 µM (inactive)
GI50 (SNB-78): > 100 µM (inactive)

N=C(c1ccccc1)N(c1ccccc1)c1ccccc1
GI50 (HOP-18): 0.0415 µM (active)
GI50 (DMS-273): 42.5 µM (inactive)
GI50 (DLD-1): 63.5 µM (inactive)
GI50 (LXFL 529): 21.6 µM (inactive)
GI50 (SNB-78): 55 µM (inactive)

O=C1/C(=C/c2ccc(OC(=O)c3ccc(Cl)cc3)cc2)CCC/C1=C\c1ccc(OC(=O)c2ccc(Cl)cc2)cc1
GI50 (BT-549): > 100 µM (inactive)

CCOC(=O)/C(C(C)=O)=C1/N[C@H](C(=O)OCC)CS1
GI50 (HOP-18): > 100 µM (inactive)
GI50 (RXF 631): > 100 µM (inactive)
GI50 (XF498): > 100 µM (inactive)
GI50 (DLD-1): > 100 µM (inactive)
GI50 (LXFL 529): > 100 µM (inactive)
GI50 (SNB-78): > 100 µM (inactive)

CN(C)CCNc1ccc(C(=O)NCCCN(C)CCCNC(=O)c2ccc(NCCN(C)C)c3c(=O)c4ccccc4[nH]c23)c2[nH]c3ccccc3c(=O)c12
GI50 (BT-549): 0.144 µM (active)

CCOC(=O)C(Cc1ccc(OC(=O)OC(C)(C)C)cc1)NC(=O)OC(C)(C)C (configuration not stated)
GI50 (BT-549): > 100 µM (inactive)

COc1ccc(/C=C/C(=O)Oc2ccccc2OC)cc1
GI50 (BT-549): 67 µM (inactive)

CC1=CC2CC(C)=C(CC[C@]3(C)CC[C@H]([C@@H](C)C(=O)O)OO3)C(C)(C)C2CC1 (some centres not stated)
GI50 (HOP-18): 0.158 µM (active)
GI50 (RXF 631): 1.48 µM (inactive)
GI50 (DMS-273): 0.528 µM (active)
GI50 (DLD-1): 0.201 µM (active)
GI50 (DMS-114): 0.376 µM (active)
GI50 (LXFL 529): 0.193 µM (active)
GI50 (SNB-78): 1.51 µM (inactive)

O=C(c1ccccc1)C1C(c2ccccc2[N+](=O)[O-])N1C1CCCCC1 (configuration not stated)
GI50 (BT-549): 11.6 µM (inactive)

CC1=CC(=O)/C(=C/NC(=S)C(N)=S)C(=O)O1
GI50 (BT-549): > 100 µM (inactive)

COc1cc(C(=O)NNC(=O)c2cc(Br)ccc2NC(=O)c2cccs2)cc(OC)c1OC
GI50 (BT-549): 22.3 µM (inactive)

Cc1n[n+]([O-])c(C)cc1[N+](=O)[O-]
GI50 (BT-549): 24.7 µM (inactive)

CCC1([N+](=O)[O-])CN(N=O)C1
GI50 (BT-549): > 100 µM (inactive)

CC(=O)OC1=CC2=CC[C@H]3[C@@H]4CCC(=O)[C@@]4(C)CC(=O)[C@]3(S)[C@@]2(C)CC1
GI50 (BT-549): 35 µM (inactive)

CC(=O)O[C@@]1(C)[C@@H](C)C(=O)O[C@@H]2CCN3CC=C(COC(=O)[C@]1(C)O)[C@H]23
GI50 (DMS-273): > 100 µM (inactive)
GI50 (DLD-1): > 100 µM (inactive)
GI50 (DMS-114): > 100 µM (inactive)
GI50 (LXFL 529): > 100 µM (inactive)
